According to US7045516B1, “Benzoxazole derivatives and drugs containing the same as the active ingredient” (Koichi Shudo, priority 1998, dated 2006):

Molecular target: T1, 5-HT3 receptor (Cavia porcellus, UniProt O70212)
T1 construct: From ileum of Hartley male guinea pigs (500 g to 800 g) longitudinal muscle samples of about 20 mm were prepared; from tissue; host or cells: guinea pig ileum longitudinal muscle
T1 sequence (O70212 20-490): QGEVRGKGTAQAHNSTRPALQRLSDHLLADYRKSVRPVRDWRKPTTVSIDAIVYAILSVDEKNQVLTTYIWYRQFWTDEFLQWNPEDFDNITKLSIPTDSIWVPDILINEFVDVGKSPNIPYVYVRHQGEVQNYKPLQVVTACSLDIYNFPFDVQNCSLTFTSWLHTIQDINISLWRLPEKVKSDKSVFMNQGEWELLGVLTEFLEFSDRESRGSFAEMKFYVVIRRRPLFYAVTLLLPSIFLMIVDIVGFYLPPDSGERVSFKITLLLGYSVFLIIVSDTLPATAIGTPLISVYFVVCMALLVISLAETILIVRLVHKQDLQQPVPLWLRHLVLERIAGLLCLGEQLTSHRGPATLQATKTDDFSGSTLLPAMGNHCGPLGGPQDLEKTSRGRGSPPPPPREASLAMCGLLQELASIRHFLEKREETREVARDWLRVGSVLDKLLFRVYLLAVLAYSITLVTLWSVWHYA
Experiment: Test for 5-HT3 receptor activating action and antagonism, guinea pig ileum longitudinal muscle contraction
Format: cell-based
Conditions: for EC50: negative logarithm of molar concentration giving 50% maximum contraction, read-out: Activating action pD2 (converted); for Activating action i.a.: ratio of maximum contraction by compound relative to maximum contraction with 10 μM 5-HT (defined as 1); for inhibition at 10 µM: inhibitory ratio of contraction by 10 μM 5-HT in sample treated beforehand with 10 μM compound, guinea pig ileum longitudinal muscle
Description: From ileum of Hartley male guinea pigs (500 g to 800 g) longitudinal muscle samples of about 20 mm were prepared. The samples were suspended at a resting tension of about 0.5 g in Magnus tubes, and isometric contraction reaction was measured. The samples were treated beforehand twice with 0.3 μM of 5-HT for 1 hour to desensitize the 5-HT4 receptors, and then given with 5-HT at a concentration of 0.1 to 30 μM to examine dose-dependent contraction reaction via the 5-HT3 receptors. […] The index of the 5-HT3 receptor activating action, i.a., is represented as a ratio of the maximum reaction obtained by each compound relative to the maximum contraction reaction obtained with 10 μM of 5-HT, which is defined to be 1. The index of strength of binding with the 5-HT3 receptor, pD2, is represented with a negative logarithmic value of a concentration (molar concentration) that gave 50% maximum contraction reaction for each compound. As for the antagonistic activity of each compound against the 5-HT3 receptor, inhibitory ratio was calculated, which represents a ratio of contraction obtained by applying 10 μM of 5-HT to a sample treated beforehand with 10 μM of each compound relative to the contraction obtained by applying 10 μM of 5-HT to an untreated sample.

| EC50 | Activating action i.a. | inhibition at 10 µM | SMILES |
| --- | --- | --- | --- |
| 295 nM | 0.36 | 88% | COc1cc(Cl)cc2nc(N3CCCNCC3)oc12 [Example 2, 5-Chloro-2-(1-homopiperazinyl)-7-methoxybenzoxazole] |
| 191 nM | 0.08 | 88% | Cc1cc2oc(N3CCCNCC3)nc2cc1Cl [Example 3, 5-Chloro-2-(1-homopiperazinyl)-6-methylbenzoxazole] |
| 17.8 nM |  | 89% | CCc1cc(Cl)cc2nc(N3CCCNCC3)oc12 [Example 4, 5-Chloro-7-ethyl-2-(1-homopiperazinyl) benzoxazole] |
| 3980 nM | 0.35 | 90% | CC(=O)Nc1cc(Cl)cc2nc(N3CCCNCC3)oc12 [Example 6, 7-Acetamino-5-chloro-2-(1-homopiperazinyl)benzoxazole] |
| 2000 nM | 0.31 | 83% | CC(C)(C)OC(=O)Nc1cc(Cl)cc2nc(N3CCCNCC3)oc12 [Example 7, 7-(tert-Butyloxycarbonylamino)-5-chloro-2-(1-homopiperazinyl)benzoxazole] |

Second part, the compound before the results:

| SMILES | EC50 | Activating action i.a. | inhibition at 10 µM |
| --- | --- | --- | --- |
| c1ccc2oc(N3CCCNCC3)nc2c1 [A, 2-(1-homopiperazinyl)benzoxazole, reference compound] | 1700 nM | 0.32 |  |
| Cc1cc(C)c2oc(N3CCN(C)CC3)nc2c1 [B, 5,7-dimethyl-2-(4-methyl-1-piperazinyl) benzoxazole, reference compound] | 479 nM | 0.62 |  |
| Cc1cc(C)c2oc(N3CCNCC3)nc2c1 [C, 5,7-dimethyl-2-(1-piperazinyl)benzoxazole, reference compound] | 70.8 nM | 0.12 | 91% |
| Cc1cc(Cl)cc2nc(N3CCN(C)CC3)oc12 [D, 5-chloro-7-methyl-2-(4-methyl-1-piperazinyl)benzoxazole, reference compound] | 162 nM | 0.27 | 94% |
| Cc1cc(Cl)cc2nc(N3CCCN(C)CC3)oc12 [E, 5-chloro-7-methyl-2-(4-methyl-1-homopiperazinyl) benzoxazole, reference compound] | 21.4 nM | 0.17 | 98% |
| Cc1cc(Cl)cc2nc(N3CCCNCC3)oc12 [Example 1 (a), 5-Chloro-2-(1-homopiperazinyl)-7-methylbenzoxazole] | 33.1 nM | 0.12 | 95% |
